According to patent publication US20190231666A1, “ANTI-DANDRUFF COMPOSITION” (Conopco, Inc., d/b/a UNILEVER, priority 2016, published 2019):

Key:
[1] = 25° C.; cited from earlier work
MCF7 cells = details: 13 μM myricetin vs DMSO vehicle control, FIGS. 2A and 2B; cited from earlier work
[2] = system: normal human epidermal keratinocytes (HEKa cells); assay: IL-8 release from keratinocytes stimulated with IL-17, IL-22 and TNFα; type: cell-based; details: 16 hrs
Experimental: To test the foregoing hypothesis, the inventors devised an in vitro model for the inflammatory conditions prevalent in the skin of subjects with dandruff. The model involves in vitro tissue culture of normal human epidermal keratinocytes (HEKa cells). The cells were exposed to a combination of IL-17, TNFα and IL-22 to stimulate an inflammatory-type response, which response was measured by production of IL-8 by the keratinocytes and also by analysis of their general gene expression profile. Adult proliferating human epidermal karatinocytes (HEKa) (from Thermo Fisher Scientific) used at low passage (p3 or lower). Cells were cultured in keratinocyte maintenance medium KGM Gold (Lonza Group) containing all components of the bullet kit plus 70 μM calcium. For the assay, cells were plated in KGM Gold with all components of the bullet kit except hydrocortisone and gentamycin, supplemented with 70 μM calcium. […] After 16 hrs the cell culture medium was removed and the amount of IL-8 cytokine released from the keratinocyte cells was quantified using a DuoSet IL-8 ELISA kit (R&D Systems Ltd). The keratinocyte cells were lysed in RIPA buffer and the total amount of protein in each sample quantified using a Pierce BCA protein assay kit (Thermofisher Ltd). […] All treatments were run in triplicate and a mean and standard deviation value calculated, the results being illustrated in FIG. 3.

O=c1c(O)c(-c2cc(O)c(O)c(O)c2)oc2cc(O)cc(O)c12 [Myricetin, myricetin]
solubility in water [1]: about 55 mg/L | effect on gene expression changes observed in dandruff scalp skin relative to healthy scalp skin (MCF7 cells): reverse some of the gene expression changes | inflammatory response to the cytokines (IL-8 release) ([2]; 6.5 μg/ml myricetin, IL-17 200 ng/ml, IL-22 200 ng/ml, TNFa 10 ng/ml, p=0.0001): marked inhibition | production of IL-8 (inflammatory response) ([2]; HEKa cells, IL-17, TNFα and IL-22 stimulation, FIG. 3): significant reduction
